Measurements from the NIST ThermoML archive (doi:10.1021/je700254t).

Assay: xn = mol fraction of the nth substance listed
Conditions: 101.3 kPa, Liquid

ClC(Cl)Cl [trichloromethane] + CCCO
mass density [kg/m3]
Conditions	288.15 K	293.15 K	298.15 K	303.15 K	308.15 K	313.15 K
x2 = 0	1498.08	1488.64	1479.15	1469.61	1460.03	1450.41
x2 = 0.0493	1465.28	1456.03	1446.74	1437.41	1428.01	1418.58
x2 = 0.0992	1432.56	1423.54	1414.47	1405.35	1396.17	1386.95
x2 = 0.1499	1399.07	1390.3	1381.48	1372.61	1363.67	1354.7
x2 = 0.2002	1365.96	1357.46	1348.9	1340.28	1331.6	1322.86
x2 = 0.2496	1333.59	1325.35	1317.05	1308.69	1300.27	1291.8
x2 = 0.2999	1300.43	1292.46	1284.43	1276.34	1268.19	1260.01
x2 = 0.3493	1267.61	1259.92	1252.16	1244.35	1236.47	1228.55
x2 = 0.4004	1233.49	1226.07	1218.59	1211.06	1203.46	1195.83
x2 = 0.4502	1200.08	1192.93	1185.74	1178.48	1171.16	1163.79
x2 = 0.5001	1166.15	1159.29	1152.38	1145.42	1138.38	1131.32
x2 = 0.5497	1132.24	1125.66	1119.03	1112.35	1105.6	1098.81
x2 = 0.5999	1097.62	1091.33	1084.99	1078.61	1072.15	1065.65
x2 = 0.6497	1062.78	1056.79	1050.75	1044.65	1038.49	1032.31
x2 = 0.7001	1027.34	1021.65	1015.91	1010.11	1004.26	998.364
x2 = 0.7499	991.931	986.531	981.083	975.586	970.031	964.415
x2 = 0.7998	956.019	950.913	945.767	940.572	935.323	930.03
x2 = 0.8503	919.243	914.435	909.588	904.699	899.757	894.778
x2 = 0.9002	882.47	877.949	873.397	868.803	864.163	859.496
x2 = 0.95	845.487	841.239	836.96	832.652	828.298	823.912

CCCO [propan-1-ol] + ClC(Cl)Cl
x1 = 1
Conditions	mass density [kg/m3]
288.15 K	807.69
293.15 K	803.703
298.15 K	799.692
303.15 K	795.65
308.15 K	791.576
313.15 K	787.466

c1ccccc1 [benzene] + CCCO
mass density [kg/m3]
Conditions	288.15 K	293.15 K	298.15 K	303.15 K	308.15 K	313.15 K
x2 = 0	884.246	878.918	873.582	868.233	862.871	857.498
x2 = 0.022	882.511	877.177	871.937	866.489	861.124	855.764
x2 = 0.0557	880.03	874.714	869.383	864.034	858.669	853.296
x2 = 0.0984	876.959	871.673	866.369	861.047	855.699	850.343
x2 = 0.1632	872.435	867.203	861.955	856.682	851.38	846.063
x2 = 0.2186	868.541	863.367	858.172	852.95	847.699	842.427
x2 = 0.2385	867.148	861.999	856.826	851.625	846.396	841.156
x2 = 0.3046	862.546	857.468	852.368	847.234	842.067	836.875
x2 = 0.3993	855.836	850.881	845.896	840.877	835.823	830.744
x2 = 0.4505	852.174	847.288	842.37	837.417	832.428	827.425
x2 = 0.5023	848.393	843.581	838.736	833.856	828.935	823.986
x2 = 0.6035	840.846	836.186	831.492	826.762	821.989	817.183
x2 = 0.66	836.494	831.916	827.312	822.69	817.981	813.261
x2 = 0.7035	833.115	828.615	824.081	819.512	814.9	810.256
x2 = 0.7453	829.801	825.366	820.902	816.4	811.856	807.285
x2 = 0.8016	825.211	820.875	816.507	812.105	807.61	803.184
x2 = 0.8447	821.474	817.209	812.998	808.593	804.229	799.833
x2 = 0.8981	816.954	812.786	808.589	804.36	800.093	795.804
x2 = 0.9495	812.375	808.313	804.141	800.008	795.838	791.644

CCCO [propan-1-ol] + c1ccccc1
x1 = 1
Conditions	mass density [kg/m3]
288.15 K	807.69
293.15 K	803.703
298.15 K	799.692
303.15 K	795.65
308.15 K	791.576
313.15 K	787.466
